pIC50: −log10 of the molar value. Like-named read-outs stand apart in the source and are kept apart here.
Experiments:
[1] = tested on: GIST-T1 cells; experiment: GIST cell proliferation assay; format: cell-based, human; conditions: read-out: GIST-T1 IC50
Description: Gastrointestinal stromal tumors (GIST) are the most common adult sarcomas and the majority (85-90%) of GIST cases are caused by oncogenic mutations in the receptor tyrosine kinases (RTKs), KIT or PDGFRA, which result in constitutive activation of these receptors. Human GIST-derived cell line GIST-Ti which harboring a mutation in exon 11 of KIT was used for the measurement of inhibitory potency of the compounds.
GIST-T1 cells were purchased from Cosmo Bio (Tokyo, Japan) and cultured in 10% FBS containing DMEM. The assay was performed in 96-well plates and the IC50 of each compound was determined by CellTiter Glo Assay reagent and Victor X5 Multilabel Counter. Cells were seeded at a density of 2000 cells/90 μL/well in 96-well plates. Compound dilution, cell treatment and determination of IC50 were performed as described in the assay methods of M-07e Cell Proliferation Assay.

[2] = molecular target: recombinant human KIT tyrosine kinase protein (Homo sapiens (Human), UniProt P10721); experiment: KIT tyrosine kinase assay (ADP-Glo); format: biochemical
Chain of recombinant human KIT tyrosine kinase protein (P10721 546-976): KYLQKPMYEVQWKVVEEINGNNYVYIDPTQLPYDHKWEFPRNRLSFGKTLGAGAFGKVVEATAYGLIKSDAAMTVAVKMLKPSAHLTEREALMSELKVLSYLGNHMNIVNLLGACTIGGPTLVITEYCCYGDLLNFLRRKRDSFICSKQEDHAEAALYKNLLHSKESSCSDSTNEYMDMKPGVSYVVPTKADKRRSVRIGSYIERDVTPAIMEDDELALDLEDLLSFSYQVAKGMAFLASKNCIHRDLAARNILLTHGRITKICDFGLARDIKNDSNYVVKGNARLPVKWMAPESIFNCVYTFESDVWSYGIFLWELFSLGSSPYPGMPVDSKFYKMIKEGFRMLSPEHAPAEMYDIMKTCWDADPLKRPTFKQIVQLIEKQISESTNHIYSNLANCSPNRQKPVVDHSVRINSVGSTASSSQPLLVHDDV

[3] = tested on: M-07e cells; experiment: SCF-dependent M-07e cell proliferation assay; format: cell-based, human; conditions: SCF-dependent M-07e cell proliferation, 3 days, CellTiter Glo; read-out: M-07e IC50
[4] = Homo sapiens, GISTT1, 72 h, GIST-T1 cells (mutation in exon 11 of KIT), CellTiter Glo, 3 days

SMILES | pIC50 [1, 4] | pIC50 ([2]; Table 98) | further results
O=C(NCc1ccc(Oc2ccc(F)cc2)nc1)c1ccc2[nH]c(=O)[nH]c2c1 [Example 29] | 7.25 | 7.25 | 
O=C(NCc1ccc(Oc2ccc(Cl)cc2)nc1)c1ccc2[nH]c(=O)[nH]c2c1 [Example 31] |  | 7.15 | pIC50 ([1]; Homo sapiens, GISTT1, 72 h): 7.15
Cn1c(=O)[nH]c2cc(C(=O)NCc3ccc(Oc4cccc(F)c4)nc3)ccc21 [Example 33] | 7.11 | 7.11 | 
CC(C)n1c(=O)[nH]c2cc(C(=O)NCc3ccc(Oc4ccc(F)cc4)nc3)ccc21 [Compound 2, N-((6-(4-Fluorophenoxy)pyridin-3-yl)methyl)-1-isopropyl-2-oxo-2,3-dihydro-1H-benzim idazole-5-carboxamide] | 6.35 | 6.35 | 
Cn1c(=O)[nH]c2cc(C(=O)NCc3ccc(Oc4ccccc4F)nc3)ccc21 [Compound 1, N-((6-(2-Fluorophenoxy)pyridin-3-yl)methyl)-1-methyl-2-oxo-2,3-dihydro-1H-benzimid azole-5-carboxamide] | 7.24 | 7.24 | 
CCn1c(=O)[nH]c2cc(C(=O)NCc3ccc(Oc4ccc(F)cc4)nc3)ccc21 [Example 35] |  | 7.08 | pIC50 ([1]; Homo sapiens, GISTT1, 72 h): 7.08
Cn1c(=O)[nH]c2cc(C(=O)NCc3ccc(Oc4ccc(Cl)cc4)nc3)ccc21 [compound 34] |  | 7.24 | pIC50 ([1]; GIST-T1 cells (mutation in exon 11 of KIT), CellTiter Glo, 3 days): 7.24
O=C(NCc1ccc(C(F)(F)F)nc1)c1ccc2[nH]c(=O)[nH]c2c1 [Example 28] | 5.44 | 5.44 | 
O=C(NCc1ccc(Oc2cccc(F)c2)nc1)c1ccc2[nH]c(=O)[nH]c2c1 [Example 30] |  | 7.17 | pIC50 ([1]; Homo sapiens, GISTT1, 72 h): 7.17
O=C(NCc1ccc(Oc2ccccc2F)nc1)c1ccc2[nH]c(=O)[nH]c2c1 [Example 32] | 7.54 | 7.54 | 
CN(c1ccc(CNC(=O)c2ccc3c(c2)[nH]c(=O)n3C)cn1)C1CC(OC(F)(F)F)C1 (single isomer, unassigned) [107 Isomer II, 1-Methyl-N-((6-(methyl(3-(trifluoromethoxy)cyclobutyl)amino)pyridin-3-yl)methyl)-2-oxo-2,3-dihydro-1H-benzimidazole-5-carboxamide] |  |  | pIC50 [3]: 6.54; pIC50 ([2]; Table 99): 7.55

Reference: patent US20260042747A1, “KIT INHIBITORS, COMPOUNDS, PHARMACEUTICAL COMPOSITIONS, AND METHODS OF USE THEREOF” (Alivexis, Inc., priority 2022, published 2026)
